Assay results reported in patent US8227406B2, “Antimicrobial peptides” (Dermagen AB, priority 2006, dated 2012).
Values joined by “and” are separate entries in the source; they are usually repeats but may differ in a detail not shown here. Equal values may be shown once. Where no end group is shown, it is not given here.

Legend:
[1] = tested on: Staphylococcus aureus ATCC29213; assay: Radial diffusion assay (RDA), S. aureus; format: cell-based; design: Data (RDA antimicrobial activity, single replicates) / Mean (RDA antimicrobial activity): unit not given here; conditions: for Data (RDA antimicrobial activity, single replicates) / Mean (RDA antimicrobial activity): S. aureus; for Data (RDA antimicrobial activity, single replicates): individual replicate; for Mean (RDA antimicrobial activity): mean of 3
Experimental: (§1) Peptides. Peptides were from Sigma-Genosys, generated by a peptide synthesis platform (PEPscreen®, Custom Peptide Libraries, SigmaGenosys). Yield was ˜1-6 mg, and peptide length 20 amino acids. MALDI-ToF Mass Spectrometry was perfomed on these peptides. Average Crude Purity of 20mers was ˜60%. Peptides were supplied lyophilized and in a 96-well tube rack. Prior to biological testing the PEPscreen peptides were diluted in dH2O (5 mM stock), and stored at −20 C. This stock solution was used for the subsequent experiments.
(§2) Eschericia coli ATCC25922, Staphylococcus aureus ATCC29213, and the fungal isolate Candida albicans ATCC90028 were obtained from the Department of Bacteriology, Lund University Hospital.
(§3) Radial diffusion assays (RDA) were performed essentially as described earlier (Lehrer, R. I., Rosenman, M., Harwig, S. S., Jackson, R. & Eisenhauer, P. (1991) Ultrasensitive assays for endogenous antimicrobial polypeptides, J Immunol Methods. 137, 167-73). Briefly, bacteria (E. coli, S. aureus) or fungi (C. albicans) were grown to midlogarithmic phase in 10 ml of full-strength (3% w/v) trypticase soy broth (TSB) (Becton-Dickinson, Cockeysville, Md.). The microorganisms were washed once with 10 mM Tris, pH 7.4. 4×10^6 bacterial cfu or 1×10^5 fungal cfu was added to 5 ml of the underlay agarose gel, consisting of 0.03% (w/v) TSB, 1% (w/v) low-electroendoosmosistype (Low-EEO) agarose (Sigma, St Louise Mo.) and a final concentration of 0.02% (v/v) Tween 20 (Sigma). The underlay was poured into a Ø 85 mm petri dish. After agarose solidified, 4 mm-diameter wells were punched and 6 μl of test sample was added to each well. Plates were incubated at 37° C. for 3 hours to allow diffusion of the peptides. The underlay gel was then covered with 5 ml of molten overlay (6% TSB and 1% Low-EEO agarose in dH2O). Antimicrobial activity of a peptide is visualized as a clear zone around each well after 18-24 hours of incubation at 37° C. for bacteria and 28° C. for Candida albicans. Other examples of peptides that were screened and found to show an increased effect against the above mentioned microorgansism are listed below. Some of the results are found in table 1c showing the effects against C. albicans, table 1d E. coli and table 1e S. aureus.

[2] = tested on: Candida albicans ATCC90028; assay: Radial diffusion assay (RDA), C. albicans; format: cell-based; design: unit not given here; conditions: for RDA Mean, C. albicans / RDA Data (single replicates), C. albicans: Table 1c; for RDA Data (single replicates), C. albicans: individual values
Experimental: as §1, §2, §3

[3] = tested on: Eschericia coli ATCC25922; assay: Radial diffusion assay (RDA), E. coli; format: cell-based, Escherichia coli; design: Data (RDA antimicrobial activity, single replicates) / Mean (RDA antimicrobial activity): unit not given here; conditions: for Data (RDA antimicrobial activity, single replicates) / Mean (RDA antimicrobial activity): E. coli; for Data (RDA antimicrobial activity, single replicates): individual replicate; for Mean (RDA antimicrobial activity): mean of 3
Experimental: as §1, §2, §3

Substance: PKR-21: growth factor derived peptide, untagged parent of PKR21WWW; sequence not printed (PKRKKKGGKNGKNRRNRKKKN; listed as Homo sapiens)
- Data (RDA antimicrobial activity, single replicates) ([1]; peptide 0.1 μM): 0
- Mean (RDA antimicrobial activity) ([1]; peptide 0.1 μM): 0.00
- Data (RDA antimicrobial activity, single replicates) ([1]; peptide 0.5 μM): 0
- Mean (RDA antimicrobial activity) ([1]; peptide 0.5 μM): 0.00
- Data (RDA antimicrobial activity, single replicates) ([1]; peptide 1 μM): 0
- Mean (RDA antimicrobial activity) ([1]; peptide 1 μM): 0.00
- Data (RDA antimicrobial activity, single replicates) ([1]; peptide 5 μM): 0
- Mean (RDA antimicrobial activity) ([1]; peptide 5 μM): 0.00
- Data (RDA antimicrobial activity, single replicates) ([1]; peptide 10 μM): 0.17 and 0.4 and 0.77
- Mean (RDA antimicrobial activity) ([1]; peptide 10 μM): 0.45
- Data (RDA antimicrobial activity, single replicates) ([1]; peptide 50 μM): 1.06 and 1.6 and 1.24
- Mean (RDA antimicrobial activity) ([1]; peptide 50 μM): 1.30
- Data (RDA antimicrobial activity, single replicates) ([1]; peptide 100 μM): 2.63 and 2.54 and 1.84
- Mean (RDA antimicrobial activity) ([1]; peptide 100 μM): 2.34
- RDA Mean, C. albicans ([2]; peptide 0.1 μM): 0.00
- RDA Data (single replicates), C. albicans ([2]; peptide 0.1 μM): 0.00
- RDA Mean, C. albicans ([2]; peptide 0.5 μM): 0.00
- RDA Data (single replicates), C. albicans ([2]; peptide 0.5 μM): 0.00
- RDA Mean, C. albicans ([2]; peptide 1 μM): 0.00
- RDA Data (single replicates), C. albicans ([2]; peptide 1 μM): 0.00
- RDA Mean, C. albicans ([2]; peptide 5 μM): 0.00
- RDA Data (single replicates), C. albicans ([2]; peptide 5 μM): 0.00
- RDA Mean, C. albicans ([2]; peptide 10 μM): 0.46
- RDA Data (single replicates), C. albicans ([2]; peptide 10 μM): 0.42 and 0.39 and 0.58
- RDA Mean, C. albicans ([2]; peptide 50 μM): 4.04
- RDA Data (single replicates), C. albicans ([2]; peptide 50 μM): 4.66 and 3.95 and 3.51
- RDA Mean, C. albicans ([2]; peptide 100 μM): 4.59
- RDA Data (single replicates), C. albicans ([2]; peptide 100 μM): 4.65 and 4.56 and 4.55
- Data (RDA antimicrobial activity, single replicates) ([3]; peptide 0.1 μM): 0
- Mean (RDA antimicrobial activity) ([3]; peptide 0.1 μM): 0.00
- Data (RDA antimicrobial activity, single replicates) ([3]; peptide 0.5 μM): 0.3 and 0.7 and 0.58
- Mean (RDA antimicrobial activity) ([3]; peptide 0.5 μM): 0.53
- Data (RDA antimicrobial activity, single replicates) ([3]; peptide 1 μM): 0.56 and 0.97 and 1.02
- Mean (RDA antimicrobial activity) ([3]; peptide 1 μM): 0.85
- Data (RDA antimicrobial activity, single replicates) ([3]; peptide 5 μM): 0.63 and 1.65 and 0.55
- Mean (RDA antimicrobial activity) ([3]; peptide 5 μM): 0.94
- Data (RDA antimicrobial activity, single replicates) ([3]; peptide 10 μM): 0.94 and 1.08 and 1.02
- Mean (RDA antimicrobial activity) ([3]; peptide 10 μM): 1.01
- Data (RDA antimicrobial activity, single replicates) ([3]; peptide 50 μM): 1.16 and 1.52 and 1.01
- Mean (RDA antimicrobial activity) ([3]; peptide 50 μM): 1.23
- Data (RDA antimicrobial activity, single replicates) ([3]; peptide 100 μM): 1.34 and 1.37 and 1.39
- Mean (RDA antimicrobial activity) ([3]; peptide 100 μM): 1.37

Substance: HKHGHLHLKHKNKGKKNGKH [Peptide 36]
- S. aureus ATCC 29213 Mean ([1]; Table 1a, RDA clear zone): 0.000
- Candida albicans ATCC 90028 Mean ([2]; Table 1a, RDA clear zone): 0.000
- E.coli ATCC 25922 Mean, Ingrowth* counted ([3]; Table 1a, RDA clear zone, ingrowth counted): 0.000
- E.coli ATCC 25922 Mean, Ingrowth not counted ([3]; Table 1a, RDA clear zone, ingrowth not counted): 0.000
